Measurements published in patent US11590089B2, “Beta-2 selective adrenergic receptor agonists” (The Board of Trustees of the Leland Stanford Junior …, priority 2017, dated 2023).
pEC50, pKi: −log10 of the molar value. Counter-ions that a name gives are not always drawn. Like-named read-outs stand apart in the source and are kept apart here.

Experiments:
[1] = target: T1, β2-AR (Homo sapiens, UniProt P07550); assay: radioligand binding assay, β2-AR, [3H]CGP12177
Experimental: (§1) The binding affinities of exemplary compounds of interest at β1AR and β2AR were evaluated in a binding assay.
Target sequence in this assay (P07550 whole entry): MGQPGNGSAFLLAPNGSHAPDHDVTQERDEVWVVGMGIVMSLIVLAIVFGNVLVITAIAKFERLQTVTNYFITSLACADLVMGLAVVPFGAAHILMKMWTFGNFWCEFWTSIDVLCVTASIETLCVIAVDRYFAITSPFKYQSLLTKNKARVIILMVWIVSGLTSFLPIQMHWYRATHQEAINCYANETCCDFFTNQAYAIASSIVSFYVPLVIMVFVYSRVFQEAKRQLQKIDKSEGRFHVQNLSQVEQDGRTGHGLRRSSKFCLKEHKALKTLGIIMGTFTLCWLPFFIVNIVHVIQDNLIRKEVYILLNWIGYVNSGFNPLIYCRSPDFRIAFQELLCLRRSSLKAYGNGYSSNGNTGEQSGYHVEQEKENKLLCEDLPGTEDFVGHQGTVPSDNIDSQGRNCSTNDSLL

[2] = target: T2, β1-AR (Homo sapiens, UniProt P08588); assay: radioligand binding assay, β1-AR, [3H]CGP12177; settings: values given as a range are from screening experiments with a low number of repeats
Experimental: as §1
Target sequence in this assay (P08588 whole entry): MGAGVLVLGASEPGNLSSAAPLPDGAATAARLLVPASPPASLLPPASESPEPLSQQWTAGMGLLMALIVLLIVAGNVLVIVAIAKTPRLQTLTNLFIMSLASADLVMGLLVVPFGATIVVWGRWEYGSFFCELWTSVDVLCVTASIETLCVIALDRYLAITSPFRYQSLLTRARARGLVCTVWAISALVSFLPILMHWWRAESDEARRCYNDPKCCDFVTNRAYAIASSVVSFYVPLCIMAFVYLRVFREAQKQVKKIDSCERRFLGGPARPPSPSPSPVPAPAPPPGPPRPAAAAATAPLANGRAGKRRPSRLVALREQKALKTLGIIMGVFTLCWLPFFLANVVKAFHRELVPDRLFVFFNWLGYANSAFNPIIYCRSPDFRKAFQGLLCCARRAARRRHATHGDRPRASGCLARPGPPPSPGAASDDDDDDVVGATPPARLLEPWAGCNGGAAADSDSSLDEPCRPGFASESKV

[3] = target: T2, β1-AR; assay: β-arrestin-2 recruitment assay at β1-AR; type: cell-based; settings: for β-arrestin-2 recruitment β1-AR Emax: relative to norepinephrine
Target sequence in this assay (P08588 whole entry): as above
Target sequence in this assay (P32121 whole entry partner): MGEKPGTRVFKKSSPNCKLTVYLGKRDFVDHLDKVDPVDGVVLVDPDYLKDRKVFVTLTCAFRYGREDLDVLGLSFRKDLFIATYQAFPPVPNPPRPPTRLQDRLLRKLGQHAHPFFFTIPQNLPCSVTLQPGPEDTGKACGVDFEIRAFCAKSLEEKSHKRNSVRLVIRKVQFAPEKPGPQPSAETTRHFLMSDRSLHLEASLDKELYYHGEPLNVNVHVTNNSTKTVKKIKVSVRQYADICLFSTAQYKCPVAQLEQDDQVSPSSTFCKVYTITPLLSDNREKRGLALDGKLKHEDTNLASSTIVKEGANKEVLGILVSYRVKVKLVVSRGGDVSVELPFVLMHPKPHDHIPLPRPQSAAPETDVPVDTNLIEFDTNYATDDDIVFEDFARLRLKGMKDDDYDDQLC

[4] = target: T1, β2-AR; assay: β-arrestin-2 recruitment assay at β2-AR; type: cell-based; settings: for β-arrestin-2 recruitment β2-AR Emax: relative to norepinephrine; for pEC50: ranges from screening experiments with a low number of repeats
Target sequence in this assay (P07550 whole entry): as the sequence (P07550 whole entry) above
Target sequence in this assay (P32121 whole entry partner): as the sequence (P32121 whole entry partner) above

[5] = target: T3, •1A-AR (Homo sapiens, UniProt P35348); assay: radioligand binding assay, α1A-AR, [3H]prazosin
T3 sequence (P35348 1-466): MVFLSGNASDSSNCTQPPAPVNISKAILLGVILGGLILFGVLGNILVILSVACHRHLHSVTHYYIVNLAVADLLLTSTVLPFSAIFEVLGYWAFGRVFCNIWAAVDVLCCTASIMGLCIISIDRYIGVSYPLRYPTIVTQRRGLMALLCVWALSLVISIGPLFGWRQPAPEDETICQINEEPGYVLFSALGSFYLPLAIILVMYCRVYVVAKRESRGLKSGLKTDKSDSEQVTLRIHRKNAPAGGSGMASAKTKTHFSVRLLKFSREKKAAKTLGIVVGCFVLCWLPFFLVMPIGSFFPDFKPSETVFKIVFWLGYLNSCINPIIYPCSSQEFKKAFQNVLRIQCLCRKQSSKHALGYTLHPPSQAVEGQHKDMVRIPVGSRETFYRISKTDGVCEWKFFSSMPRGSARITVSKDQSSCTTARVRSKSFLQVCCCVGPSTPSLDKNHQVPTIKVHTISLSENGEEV

[6] = target: T4, α2A-AR (Homo sapiens, UniProt P08913); assay: radioligand binding assay, α2A-AR, [3H]RX821002; settings: radioligand [3H]RX821002; values given as a range are from screening experiments with a low number of repeats
T4 sequence (P08913 1-465): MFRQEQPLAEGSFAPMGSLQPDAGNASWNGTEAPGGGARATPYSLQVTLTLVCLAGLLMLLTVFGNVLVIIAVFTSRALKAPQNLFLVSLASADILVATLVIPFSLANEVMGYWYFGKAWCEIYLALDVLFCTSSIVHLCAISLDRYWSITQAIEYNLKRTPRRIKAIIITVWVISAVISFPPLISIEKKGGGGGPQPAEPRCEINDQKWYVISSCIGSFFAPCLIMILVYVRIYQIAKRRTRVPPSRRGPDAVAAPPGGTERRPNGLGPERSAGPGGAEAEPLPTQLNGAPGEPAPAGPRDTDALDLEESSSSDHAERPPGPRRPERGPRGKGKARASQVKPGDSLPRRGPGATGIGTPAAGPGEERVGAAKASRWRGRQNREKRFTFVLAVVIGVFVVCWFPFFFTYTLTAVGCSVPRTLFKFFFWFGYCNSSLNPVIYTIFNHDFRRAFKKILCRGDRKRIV

[7] = Ki β1-AR [3H]CGP12177, radioligand [3H]CGP12177
[8] = radioligand [3H]CGP12177, values given as a range are from screening experiments with a low number of repeats, read-out: Ki β2-AR [3H]CGP12177
[9] = radioligand [3H]CGP12177, read-out: Ki β1-AR [3H]CGP12177
[10] = n.d. = could not be determined because of lack of activity, read-out: β-arrestin-2 recruitment β2-AR EC50
[11] = n.d. = could not be determined because of lack of activity, ranges from screening experiments with a low number of repeats, read-out: β-arrestin-2 recruitment β1-AR EC50
[12] = radioligand [3H]prazosin, values given as a range are from screening experiments with a low number of repeats, read-out: Ki •1A-AR [3H]prazosin
[13] = β-arrestin-2 recruitment β2-AR EC50, n.d. = could not be determined because of lack of activity

SMILES	β-arrestin-2 recruitment β1-AR Emax [3] [% norepinephrine]	pKi [1, 8]	β-arrestin-2 recruitment β2-AR Emax [4] [% norepinephrine]	pKi [2, 9]	pEC50 [4, 10]	also measured
CC(C)N[C@H]1CCc2c(ccc(O)c2O)[C@@H]1O [JS 3-97]						pKi ([1]; Ki β2-AR [3H]CGP12177): 6.43; pKi [2, 7]: < 4.30
N[C@@H]1CCc2cc(O)c(O)cc2C1 [AS LM16]	<5	4.12	<5	4.08		
CC(C)N[C@H]1CCc2cc(O)c(O)cc2[C@H]1O (relative stereo) [JS 3-71, cis-2-(isopropylamino)-1,2,3,4-tetrahydronaphthalene-1,6,7-triol trifluoroacetate]		< 4.30		< 4.30		
CNC1CCc2c(ccc(O)c2O)C1 (racemic) [AS LM33]	<10	4.34	125	4.05	5.68	
CNC1CCc2cc(O)c(O)cc2C1 (racemic) [AS LM31]	<5	4.10	22	4.36	4.92	
NC1CCc2c(ccc(O)c2O)C1 (single isomer, unassigned) [AS LM27]	<5	5.12	84	4.34	5.68	
NC[C@H](O)c1ccc(O)c(O)c1 [noradrenaline, reference compound]	100		100			
N[C@H]1CCc2cc(O)c(O)cc2C1 [AS LM15]	<5		<5	4.51		
Oc1ccc2c(c1O)CC[C@@H](NCCF)[C@@H]2O [LM 80, (5R,6R)-6-((2-fluoroethyl)amino)-5,6,7,8-tetrahydronaphthalene-1,2,5-triol]	81	6.55	110	5.15	7.18	pEC50 [3, 11]: 5.52; pKi [5, 12]: < 4.05; pKi [6]: 4.52
Oc1ccc2c(c1O)CC[C@@H](NCC1CCC1)[C@@H]2O [LM 110, (5R,6R)-6-((cyclobutylmethyl)amino)-5,6,7,8-tetrahydronaphthalene-1,2,5-triol]	25	6.77	116	4.29		pEC50 [3, 11]: 4.66; pKi [5]: 5.40; pEC50 [4, 13]: 7.10; pKi [6]: 5.00
O=C(O)C(F)(F)F.Oc1ccc2c(c1O)CC[C@@H](NC1CCCC1)[C@@H]2O [JS 3-159, (1R,2R)-6-(Cyclopentylamino)-5,6,7,8-tetrahydronaphthalene-1,2,5-triol trifluoroacetate]		7.60	97	5.15	7.74	
Oc1ccc2c(c1O)CC[C@@H](NCCCF)[C@@H]2O [LM 75, (5R,6R)-6-((3-fluoropropyl)amino)-5,6,7,8-tetrahydronaphthalene-1,2,5-triol]	90	7.01	111	5.12	7.60	pEC50 [3, 11]: 5.00; pKi [5]: 4.64; pKi [6]: 4.74
CC(C)N[C@@H]1CCc2c(ccc(O)c2O)[C@H]1O [AS424A, (R,R)-1,5,6-trihydroxy-N-isopropyl-1,2,3,4-tetrahydronaphthalen-2-aminium TFA]	82		103			pEC50 [3]: 5.92; selectivity for β2-AR over β1-AR [1]: high selectivity; pKi ([1]; read-out: Ki β2-AR [3H]CGP12177): 7.49; pEC50 [4, 13]: 7.62; pKi [6]: 4.15; pKi [2, 7]: 5.68
COCC(COC)N[C@@H]1CCc2c(ccc(O)c2O)[C@H]1O [LM 114, (5R,6R)-6-((1,3-dimethoxypropan-2-yl)amino)-5,6,7,8-tetrahydronaphthalene-1,2,5-triol]	35	5.82 to 6.22	125	4.10 to 4.40	6.00 to 6.30	pEC50 [3, 11]: 4.22 to 4.52; pKi [5, 12]: 4.70 to 5.00; pKi [6]: 4.92 to 5.22
CC(C)N[C@H]1CCc2c(ccc(O)c2O)[C@H]1O [AS424B, (R,S)-1,5,6-trihydroxy-N-isopropyl-1,2,3,4-tetrahydronaphthalen-2-aminium TFA]			91			pKi ([1]; Ki β2-AR [3H]CGP12177): 6.35; pEC50 [4, 13]: 6.46; pKi [2, 7]: 4.62
CC(C)N[C@@H]1CCc2cc(O)c(O)cc2[C@H]1O (relative stereo) [JS 3-89, trans-2-(Isopropylamino)-1,2,3,4-tetrahydronaphthalene-1,6,7-triol trifluoroacetate]		< 4.30		< 4.30		
CC(C)N[C@@H]1CCc2c(ccc(O)c2O)[C@@H]1O [JS 3-99]			100			pKi ([1]; Ki β2-AR [3H]CGP12177): 5.72; pEC50 [4, 13]: 5.92; pKi [2, 7]: 4.31
Oc1ccc2c(c1O)CC[C@H](NC1CCCC1)[C@@H]2O [JS 3-55, (1R,2S)-6-(cyclopentylamino)-5,6,7,8-tetrahydronaphthalene-1,2,5-triol trifluoroacetate]		< 4.70		< 4.30		
NC1CCc2c(ccc(O)c2O)C1 (single isomer, unassigned) [AS LM28]	<10	4.54	77	< 4.00	4.96	
O=C(O)C(F)(F)F.Oc1ccc2c(c1O)CC[C@H](NC1CCCC1)[C@H]2O [JS 3-51, (1 S,2S)-6-(cyclopentylamino)-5,6,7,8-tetrahydronaphthalene-1,2,5-triol trifluoroacetate]		6.62	93	4.57	6.92	
Oc1ccc2c(c1O)CC[C@@H](NC1CCCC1)[C@H]2O [JS 3-65, (1 S,2R)-6-(Cyclopentylamino)-5,6,7,8-tetrahydronaphthalene-1,2,5-triol trifluoroacetate]		5.60		< 4.30		
